Measurements published in ChEMBL document CHEMBL4017512 (J Med Chem, 2017).

Key:
L1210 = experiment: Antiproliferative activity against mouse L1210 cells after 72 hrs by phosphatase assay; assay type: functional, cell-based; conditions: L1210, 72 h
[1] = Cytotoxicity against human HCT116/VM46 cells assessed as reduction in cell viability after 72 hrs by phosphatase assay; assay type: cell-based; conditions: HCT-116/VM46, 72 h
HCT-116 = experiment: Antiproliferative activity against human HCT116 cells after 72 hrs by phosphatase assay; assay type: functional, cell-based; conditions: HCT-116, 72 h

Row | Compound | IC50 (L1210) [nM] | IC50 (HCT-116) [nM] | IC50 [1] [nM]
1 | CC[C@]1(NC(=O)c2ccc(C)c(OC)c2)C[C@H]2CN(CCc3c([nH]c4ccccc34)[C@@](C(=O)OC)(c3cc4c(cc3OC)N(C)[C@H]3[C@@](O)(C(=O)OC)[C@H](OC(C)=O)[C@]5(CC)C=CCN6CC[C@]43[C@@H]65)C2)C1 | 4.2 | 3.3 | 6.9
2 | CC[C@]1(NS(=O)(=O)c2ccc(OC)cc2)C[C@H]2CN(CCc3c([nH]c4ccccc34)[C@@](C(=O)OC)(c3cc4c(cc3OC)N(C)[C@H]3[C@@](O)(C(=O)OC)[C@H](OC(C)=O)[C@]5(CC)C=CCN6CC[C@]43[C@@H]65)C2)C1 | 35 | 30 | 240
3 | CC[C@]1(NC(=O)c2cccnc2)C[C@H]2CN(CCc3c([nH]c4ccccc34)[C@@](C(=O)OC)(c3cc4c(cc3OC)N(C)[C@H]3[C@@](O)(C(=O)OC)[C@H](OC(C)=O)[C@]5(CC)C=CCN6CC[C@]43[C@@H]65)C2)C1 | 0.7 | 0.6 | 50
4 | CC[C@]1(NC(=O)c2ccccn2)C[C@H]2CN(CCc3c([nH]c4ccccc34)[C@@](C(=O)OC)(c3cc4c(cc3OC)N(C)[C@H]3[C@@](O)(C(=O)OC)[C@H](OC(C)=O)[C@]5(CC)C=CCN6CC[C@]43[C@@H]65)C2)C1 | 55 | 50 | 460
5 | CC[C@]1(NC(=O)C2CCSCC2)C[C@H]2CN(CCc3c([nH]c4ccccc34)[C@@](C(=O)OC)(c3cc4c(cc3OC)N(C)[C@H]3[C@@](O)(C(=O)OC)[C@H](OC(C)=O)[C@]5(CC)C=CCN6CC[C@]43[C@@H]65)C2)C1 | 460 | 450 | 5200
6 | CC[C@]1(NC(=O)c2ccc(OC(F)(F)F)cc2)C[C@H]2CN(CCc3c([nH]c4ccccc34)[C@@](C(=O)OC)(c3cc4c(cc3OC)N(C)[C@H]3[C@@](O)(C(=O)OC)[C@H](OC(C)=O)[C@]5(CC)C=CCN6CC[C@]43[C@@H]65)C2)C1 | 5.9 | 4.4 | 8.4
7 | CC[C@]1(NC(=O)c2ccc(OC(F)(F)F)c(OC)c2)C[C@H]2CN(CCc3c([nH]c4ccccc34)[C@@](C(=O)OC)(c3cc4c(cc3OC)N(C)[C@H]3[C@@](O)(C(=O)OC)[C@H](OC(C)=O)[C@]5(CC)C=CCN6CC[C@]43[C@@H]65)C2)C1 | 1.3 | 1.7 | 6.9
8 | CC[C@]1(NC(=O)c2cccc(N3CCOCC3)c2)C[C@H]2CN(CCc3c([nH]c4ccccc34)[C@@](C(=O)OC)(c3cc4c(cc3OC)N(C)[C@H]3[C@@](O)(C(=O)OC)[C@H](OC(C)=O)[C@]5(CC)C=CCN6CC[C@]43[C@@H]65)C2)C1 | 4.8 | 2.8 | 30
9 | CC[C@]1(NC(=O)c2ccccc2OC(F)(F)F)C[C@H]2CN(CCc3c([nH]c4ccccc34)[C@@](C(=O)OC)(c3cc4c(cc3OC)N(C)[C@H]3[C@@](O)(C(=O)OC)[C@H](OC(C)=O)[C@]5(CC)C=CCN6CC[C@]43[C@@H]65)C2)C1 | 450 | 480 | 620
10 | CC[C@]1(NC(=O)c2ccc3ccccc3c2)C[C@H]2CN(CCc3c([nH]c4ccccc34)[C@@](C(=O)OC)(c3cc4c(cc3OC)N(C)[C@H]3[C@@](O)(C(=O)OC)[C@H](OC(C)=O)[C@]5(CC)C=CCN6CC[C@]43[C@@H]65)C2)C1 | 1.9 | 2.3 | 6.4
11 | CC[C@]1(NC(=O)c2cnc3ccccc3n2)C[C@H]2CN(CCc3c([nH]c4ccccc34)[C@@](C(=O)OC)(c3cc4c(cc3OC)N(C)[C@H]3[C@@](O)(C(=O)OC)[C@H](OC(C)=O)[C@]5(CC)C=CCN6CC[C@]43[C@@H]65)C2)C1 | 6.2 | 5.9 | 60
12 | CC[C@]1(NC(=O)c2ccccc2C(F)(F)F)C[C@H]2CN(CCc3c([nH]c4ccccc34)[C@@](C(=O)OC)(c3cc4c(cc3OC)N(C)[C@H]3[C@@](O)(C(=O)OC)[C@H](OC(C)=O)[C@]5(CC)C=CCN6CC[C@]43[C@@H]65)C2)C1 | 45 | 60 | 540
13 | CC[C@]1(NC(=O)c2ccc(N)cc2)C[C@H]2CN(CCc3c([nH]c4ccccc34)[C@@](C(=O)OC)(c3cc4c(cc3OC)N(C)[C@H]3[C@@](O)(C(=O)OC)[C@H](OC(C)=O)[C@]5(CC)C=CCN6CC[C@]43[C@@H]65)C2)C1 | 0.4 | 0.4 | 4.8
14 | CC[C@]1(NC(=O)c2ccc3c(c2)CCN3)C[C@H]2CN(CCc3c([nH]c4ccccc34)[C@@](C(=O)OC)(c3cc4c(cc3OC)N(C)[C@H]3[C@@](O)(C(=O)OC)[C@H](OC(C)=O)[C@]5(CC)C=CCN6CC[C@]43[C@@H]65)C2)C1 | 5.1 | 6.7 | 60
15 | CC[C@]1(NC(=O)c2ccc3cc(N)ccc3c2)C[C@H]2CN(CCc3c([nH]c4ccccc34)[C@@](C(=O)OC)(c3cc4c(cc3OC)N(C)[C@H]3[C@@](O)(C(=O)OC)[C@H](OC(C)=O)[C@]5(CC)C=CCN6CC[C@]43[C@@H]65)C2)C1 | 0.7 | 0.8 | 7.4
16 | CC[C@]1(NC(=O)c2ccnnc2)C[C@H]2CN(CCc3c([nH]c4ccccc34)[C@@](C(=O)OC)(c3cc4c(cc3OC)N(C)[C@H]3[C@@](O)(C(=O)OC)[C@H](OC(C)=O)[C@]5(CC)C=CCN6CC[C@]43[C@@H]65)C2)C1 | 30 | 9 | 700
17 | CC[C@]1(NC(=O)/C=C/c2ccoc2)C[C@H]2CN(CCc3c([nH]c4ccccc34)[C@@](C(=O)OC)(c3cc4c(cc3OC)N(C)[C@H]3[C@@](O)(C(=O)OC)[C@H](OC(C)=O)[C@]5(CC)C=CCN6CC[C@]43[C@@H]65)C2)C1 | 0.7 | 0.7 | 20
18 | CC[C@]1(NC(=O)c2ccc3c(c2)CCO3)C[C@H]2CN(CCc3c([nH]c4ccccc34)[C@@](C(=O)OC)(c3cc4c(cc3OC)N(C)[C@H]3[C@@](O)(C(=O)OC)[C@H](OC(C)=O)[C@]5(CC)C=CCN6CC[C@]43[C@@H]65)C2)C1 | 0.3 | 0.25 | 2.4
19 | CC[C@]1(NC(=O)c2ccc3ocnc3c2)C[C@H]2CN(CCc3c([nH]c4ccccc34)[C@@](C(=O)OC)(c3cc4c(cc3OC)N(C)[C@H]3[C@@](O)(C(=O)OC)[C@H](OC(C)=O)[C@]5(CC)C=CCN6CC[C@]43[C@@H]65)C2)C1 | 5.4 | 5.1 | 70

Now from value to compound, other results behind:

Row | IC50 (L1210) [nM] | IC50 (HCT-116) [nM] | Compound | IC50 [1] [nM]
20 | 0.4 | 0.4 | CC[C@]1(NC(=O)c2ccc3ccncc3c2)C[C@H]2CN(CCc3c([nH]c4ccccc34)[C@@](C(=O)OC)(c3cc4c(cc3OC)N(C)[C@H]3[C@@](O)(C(=O)OC)[C@H](OC(C)=O)[C@]5(CC)C=CCN6CC[C@]43[C@@H]65)C2)C1 | 3.7
21 | 0.7 | 0.6 | CC[C@]1(NC(=O)c2cnc3ccccc3c2)C[C@H]2CN(CCc3c([nH]c4ccccc34)[C@@](C(=O)OC)(c3cc4c(cc3OC)N(C)[C@H]3[C@@](O)(C(=O)OC)[C@H](OC(C)=O)[C@]5(CC)C=CCN6CC[C@]43[C@@H]65)C2)C1 | 5.7
22 | 55 | 55 | CC[C@]1(NC(=O)Cc2ccccc2)C[C@H]2CN(CCc3c([nH]c4ccccc34)[C@@](C(=O)OC)(c3cc4c(cc3OC)N(C)[C@H]3[C@@](O)(C(=O)OC)[C@H](OC(C)=O)[C@]5(CC)C=CCN6CC[C@]43[C@@H]65)C2)C1 | 550
23 | 0.6 | 0.6 | CC[C@]1(NC(=O)c2ccc(N)c(C)c2)C[C@H]2CN(CCc3c([nH]c4ccccc34)[C@@](C(=O)OC)(c3cc4c(cc3OC)N(C)[C@H]3[C@@](O)(C(=O)OC)[C@H](OC(C)=O)[C@]5(CC)C=CCN6CC[C@]43[C@@H]65)C2)C1 | 7.8
24 | 5.4 | 4.3 | CC[C@]1(NC(=O)c2ccc(C)c(NC(C)=O)c2)C[C@H]2CN(CCc3c([nH]c4ccccc34)[C@@](C(=O)OC)(c3cc4c(cc3OC)N(C)[C@H]3[C@@](O)(C(=O)OC)[C@H](OC(C)=O)[C@]5(CC)C=CCN6CC[C@]43[C@@H]65)C2)C1 | 330
25 | 4.3 | 4.8 | CCCc1ccc(C(=O)N[C@@]2(CC)C[C@H]3CN(CCc4c([nH]c5ccccc45)[C@@](C(=O)OC)(c4cc5c(cc4OC)N(C)[C@H]4[C@@](O)(C(=O)OC)[C@H](OC(C)=O)[C@]6(CC)C=CCN7CC[C@]54[C@@H]76)C3)C2)cc1 | 35
26 | 30 | 30 | CC[C@]1(NS(=O)(=O)c2cccc3c(N(C)C)cccc23)C[C@H]2CN(CCc3c([nH]c4ccccc34)[C@@](C(=O)OC)(c3cc4c(cc3OC)N(C)[C@H]3[C@@](O)(C(=O)OC)[C@H](OC(C)=O)[C@]5(CC)C=CCN6CC[C@]43[C@@H]65)C2)C1 | 60
27 | 5.1 | 6.2 | CC[C@]1(NC(=O)c2ccc(OC)c(Br)c2)C[C@H]2CN(CCc3c([nH]c4ccccc34)[C@@](C(=O)OC)(c3cc4c(cc3OC)N(C)[C@H]3[C@@](O)(C(=O)OC)[C@H](OC(C)=O)[C@]5(CC)C=CCN6CC[C@]43[C@@H]65)C2)C1 | 40
28 | 70 | 90 | CC[C@]1(NC(=O)C(C)C)C[C@H]2CN(CCc3c([nH]c4ccccc34)[C@@](C(=O)OC)(c3cc4c(cc3OC)N(C)[C@H]3[C@@](O)(C(=O)OC)[C@H](OC(C)=O)[C@]5(CC)C=CCN6CC[C@]43[C@@H]65)C2)C1 | 1400
29 | 0.7 | 0.7 | CC[C@]1(NC(=O)/C=C/c2ccccn2)C[C@H]2CN(CCc3c([nH]c4ccccc34)[C@@](C(=O)OC)(c3cc4c(cc3OC)N(C)[C@H]3[C@@](O)(C(=O)OC)[C@H](OC(C)=O)[C@]5(CC)C=CCN6CC[C@]43[C@@H]65)C2)C1 | 25
